From EP0068408A1 (priority 1981, dated 1983)
Converted amounts (≈) assume the structure as drawn. Where two headings read alike, the source gives them in different places.

Experiments:
[1] = system: influenza virus B/GL; experiment: animal or person; assay type: in vivo, mice; conditions: unidentified influenza virus, in Mus musculus, po, 360 h, read-out: Survival rate
[2] = Acute toxicity in mice (LD50); assay type: in vivo; conditions: ddY male mice, suspended in 5% Arabic gum solution, observed for 7 days; for LD50 at 168 h: mouse, in vivo
Procedure: Experimental Example 7: Acute Toxicity in Mice
Each compound of the invention was suspended in 5% Arabic gum solution and given orally (p.o.) or intraperitoneally (i.p.) to groups of ten ddY male mice weighed from 24 to 26 g at the dosage volume of 10 ml/kg. […] LD50 was determined according to the method of Wilcoxon and Litchfield.

[3] = system: influenza virus A/WSN; experiment: animal or person; assay type: in vivo, mice; conditions: in Mus musculus, 360 h, read-out: Survival rate
[4] = system: Influenza A0; experiment: microbe, parasite or virus in culture; assay type: cell-based; conditions: virus A = Influenza A0, MDCK, Vero and HEL cells, 2 or 3 days
[5] = system: Influenza A1; experiment: microbe, parasite or virus in culture; assay type: cell-based
[6] = system: Influenza B; experiment: microbe, parasite or virus in culture; assay type: cell-based
[7] = system: Parainfluenza Type 3; experiment: microbe, parasite or virus in culture; assay type: cell-based; conditions: virus E = Parainfluenza Type 3
[8] = system: ECHO; experiment: microbe, parasite or virus in culture; assay type: cell-based
[9] = system: Coxsackie Type B5; experiment: microbe, parasite or virus in culture; assay type: cell-based; conditions: virus G = Coxsackie Type B5
[10] = system: Rhino; experiment: microbe, parasite or virus in culture; assay type: cell-based
[11] = system: influenza A0 virus; experiment: animal or person; assay type: in vivo, mice; conditions: for responders at 100 mg/kg / responders at 300 mg/kg / responders at 10 mg/kg / responders at 30 mg/kg: Mus musculus, 360 h, twice a day for 14 days, survivors at 15th day, read-out: Survival rate; for protective action against death due to the infection: result in words, Tables 3 and 4
[12] = ip, i.p., read-out: LD50 value, Intraperitoneal administration
[13] = po, p.o., read-out: LD50 value, Oral administration

Structure (SMILES)	LD50 at 168 h [2, 12] [mg/kg]	LD50 at 168 h [2, 13] [mg/kg]	MIC [4] [µg/mL]	MIC [5] [µg/mL]	MIC [6] [µg/mL]	MIC [7] [µg/mL]	MIC [8] [µg/mL]	MIC [9] [µg/mL]	MIC [10] [µg/mL]	responders at 300 mg/kg ([11]; oral) [%]	responders at 100 mg/kg ([11]; ip, intraperitoneal) [%]	also measured
CC(C)OC(=O)c1ccc(Br)c(S(N)(=O)=O)c1 [Compound 29]	–	–	–	–	–	–	–	–	–	–	–	responders at 100 mg/kg [1]: 30%; responders at 300 mg/kg [1]: 40%; LD50 value, Intraperitoneal administration ([2]; i.p.): >1,000 mg/kg; LD50 value, Oral administration ([2]; p.o.): >3,000 mg/kg
COC(=O)c1cc(S(N)(=O)=O)c(Cl)cc1Cl [Compound 31]	> 1000	> 3000	–	–	–	–	–	–	–	–	–	responders at 100 mg/kg ([3]; po): 40%; responders at 300 mg/kg ([3]; po): 50%; responders at 100 mg/kg [1]: 40%; responders at 300 mg/kg [1]: 50%
COC(=O)c1cc(S(N)(=O)=O)c(Cl)cc1F [Compound 41]	> 1000	> 3000	–	–	–	–	–	–	–	–	–	responders at 30 mg/kg ([3]; ip): 30%; responders at 100 mg/kg ([3]; ip): 50%; responders at 100 mg/kg [1]: 30%; responders at 300 mg/kg [1]: 50%
NNS(=O)(=O)c1cc(C(=O)O)ccc1Cl [Compound 7]	746	> 3000	10 (≈ 39.9 µM)	300 (≈ 1200 µM)	100 (≈ 399 µM)	300 (≈ 1200 µM)	300 (≈ 1200 µM)	300 (≈ 1200 µM)	300 (≈ 1200 µM)	60	–	responders at 100 mg/kg ([11]; oral): 40%; responders at 10 mg/kg ([11]; ip, intraperitoneal): 30%; responders at 30 mg/kg ([11]; ip, intraperitoneal): 50%; protective action against death due to the infection [11]: extremely excellent activity
NS(=O)(=O)c1cc(C(=O)O)cc([N+](=O)[O-])c1Cl [Compound 15]	> 1000	> 3000	30 (≈ 107 µM)	300 (≈ 1070 µM)	300 (≈ 1070 µM)	300 (≈ 1070 µM)	100 (≈ 356 µM)	300 (≈ 1070 µM)	300 (≈ 1070 µM)	50	50	–
CCCOC(=O)c1cc(S(N)(=O)=O)c(Cl)cc1Cl [Compound 33]	> 1000	> 3000	–	–	–	–	–	–	–	–	–	responders at 30 mg/kg ([3]; ip): 40%; responders at 100 mg/kg ([3]; ip): 50%; responders at 100 mg/kg ([3]; po): 50%; responders at 300 mg/kg ([3]; po): 60%; responders at 100 mg/kg [1]: 40%; responders at 300 mg/kg [1]: 50%
CN1CCN(S(=O)(=O)c2cc(C(=O)O)ccc2Cl)CC1 [Compound 13]	> 1000	> 3000	10 (≈ 31.4 µM)	100 (≈ 314 µM)	100 (≈ 314 µM)	300 (≈ 941 µM)	300 (≈ 941 µM)	100 (≈ 314 µM)	300 (≈ 941 µM)	70	–	responders at 100 mg/kg ([11]; oral): 50%; responders at 10 mg/kg ([11]; ip, intraperitoneal): 40%; responders at 30 mg/kg ([11]; ip, intraperitoneal): 50%; protective action against death due to the infection [11]: extremely excellent activity
N=C(N)NS(=O)(=O)c1cc(C(=O)O)c(Cl)cc1Cl [Compound 21]	987	> 3000	100 (≈ 320 µM)	300 (≈ 961 µM)	300 (≈ 961 µM)	300 (≈ 961 µM)	300 (≈ 961 µM)	300 (≈ 961 µM)	100 (≈ 320 µM)	50	40	–
Nc1cc(Cl)c(S(N)(=O)=O)cc1C(=O)O [Compound 14]	> 1000	> 3000	30 (≈ 120 µM)	100 (≈ 399 µM)	300 (≈ 1200 µM)	300 (≈ 1200 µM)	300 (≈ 1200 µM)	300 (≈ 1200 µM)	300 (≈ 1200 µM)	50	40	–
CONS(=O)(=O)c1cc(C(=O)O)ccc1Cl [Compound 4]	> 1000	> 3000	30 (≈ 113 µM)	300 (≈ 1130 µM)	100 (≈ 376 µM)	300 (≈ 1130 µM)	300 (≈ 1130 µM)	300 (≈ 1130 µM)	300 (≈ 1130 µM)	40	50	–
NS(=O)(=O)c1cc(C(=O)O)c(F)cc1Cl [Compound 16]	> 1000	> 3000	30 (≈ 118 µM)	300 (≈ 1180 µM)	300 (≈ 1180 µM)	300 (≈ 1180 µM)	300 (≈ 1180 µM)	30 (≈ 118 µM)	300 (≈ 1180 µM)	50	50	–
CN(CCO)S(=O)(=O)c1cc(C(=O)O)ccc1Cl [Compound 6]	> 1000	> 3000	30 (≈ 102 µM)	300 (≈ 1020 µM)	300 (≈ 1020 µM)	300 (≈ 1020 µM)	100 (≈ 340 µM)	300 (≈ 1020 µM)	300 (≈ 1020 µM)	40	60	–
NC(=O)NNS(=O)(=O)c1cc(C(=O)O)c(Cl)cc1Cl [Compound 23]	> 1000	> 3000	100 (≈ 305 µM)	300 (≈ 914 µM)	300 (≈ 914 µM)	100 (≈ 305 µM)	300 (≈ 914 µM)	300 (≈ 914 µM)	300 (≈ 914 µM)	40	40	–
NS(=O)(=O)c1cc(Br)cc(C(=O)O)c1 [Compound 26]	> 1000	> 3000	30 (≈ 107 µM)	300 (≈ 1070 µM)	300 (≈ 1070 µM)	300 (≈ 1070 µM)	100 (≈ 357 µM)	300 (≈ 1070 µM)	300 (≈ 1070 µM)	50	40	–
NS(=O)(=O)c1cc(Cl)cc(C(=O)O)c1 [Compound 25]	> 1000	> 3000	30 (≈ 127 µM)	300 (≈ 1270 µM)	100 (≈ 424 µM)	300 (≈ 1270 µM)	300 (≈ 1270 µM)	300 (≈ 1270 µM)	300 (≈ 1270 µM)	50	40	–
